Measurements reported in US10464922B2, “Metalloenzyme inhibitor compounds” (NQP 1598 LTD., priority 2015, dated 2019).
≈ marks a conversion by molar mass, not a printed value.

Experiments:
A. fumigatus = A. fumigatus MIC at 100% growth inhibition (CLSI M38-A2); format: cell-based, Aspergillus fumigatus; conditions: 100% growth inhibition, range tested 8-0.0078 μg/mL, values given as ranges; for MIC: Aspergillus fumigatus, read-out: Aspergillus fumigatus MIC
Procedure: A. fumigatus MICs were determined at 100% growth inhibition following CLSI guidelines at a concentration range of 8-0.0078 μg/mL (CLSI M38-A2).

C. albicans (ATCC 90028) = experiment: Minimum inhibitory concentration, in vitro broth microdilution assay (CLSI M27-A2); format: cell-based, Candida albicans; conditions: ATCC 90028, about 50% growth reduction, 2 days at 36° C., range tested 8-0.0078 μg/mL, values given as ranges; for MIC: Candida albicans, ATCC90028, 48 h, read-out: Candida albicans MIC
Procedure: The antifungal potency of the test compounds was measured using the in vitro broth microdilution assay under assay conditions described by the Clinical and Laboratory Standards Institute (CLSI M27-A2). The test compounds were dissolved in 100% DMSO, suspended completely by sonication or vortexing, diluted by 2-fold serial titrations in the same vehicle, for a total of 11 test concentrations. A 4 μL aliquot of each dilution was added to 196 μL of RPMI-1640+MOPS medium seeded with the C. albicans (ATCC 90028) suspension in wells of a 96 well plate (fungal cell count: 1×10^3 to 1×10^4 colony forming units per mL). The final volume was 200 μL in each well and the final DMSO concentration was 2 percent. The inoculated plates were incubated for 2 days at 36° C. Following incubation, the test plates were visually examined and wells were scored for growth to define the minimum inhibitory concentration. […] Each test substance was evaluated in duplicate. Vehicle-control and an active reference agent (e.g., posaconazole) were used as blank and positive controls, respectively.

MIC (A. fumigatus)	MIC (C. albicans (ATCC 90028))	Aspergillus fumigatus MIC (A. fumigatus)	Candida albicans MIC (C. albicans (ATCC 90028))	SMILES
0.062 to 0.25 µg/mL (≈ 0.082 to 0.331 µM)	0.0078 to 0.01 µg/mL (≈ 0.0103 to 0.0132 µM)			O=c1n(-c2ccc(N3CCN(c4ccc(-c5ccc(C(F)(F)[C@](O)(Cn6cnnn6)c6ccc(F)cc6F)nc5)cc4)CC3)cn2)cnn1CC(F)(F)F [Example 87, (R)-4-(5-(4-(4-(6-(2-(2,4-difluorophenyl)-1,1-difluoro-2-hydroxy-3-(1H-tetrazol-1-yl)propyl)pyridin-3-yl)phenyl)piperazin-1-yl)pyridin-2-yl)-2-(2,2,2-trifluoroethyl)-2,4-dihydro-3H-1,2,4-triazol-3-one]
		0.25 to 1.0 µg/mL	≤7.8 to 10 ng/mL	OC(c1cn(-c2ccc(N3CCN(c4ccc(-c5ccc(C(F)(F)C(O)(Cn6cnnn6)c6ccccc6F)nc5)cc4)CC3)cn2)nn1)C(F)(F)F (single isomer, unassigned; (+)) [110(+), (+)-1,1-difluoro-2-(2-fluorophenyl)-3-(1H-tetrazol-1-yl)-1-(5-(4-(4-(6-(4-(2,2,2-trifluoro-1-hydroxyethyl)-1H-1,2,3-triazol-1-yl)pyridin-3-yl)piperazin-1-yl)phenyl)pyridin-2-yl) propan-2-ol]
0.25 to 1 µg/mL (≈ 0.358 to 1.43 µM)	0.0078 to 0.01 µg/mL (≈ 0.0112 to 0.0143 µM)			O[C@@](Cn1cnnn1)(c1ccc(F)cc1F)C(F)(F)c1ccc(-c2ccc(N3CCN(c4ccc5[nH]c(C(F)(F)F)nc5c4)CC3)cc2)cn1 [Example 35, (R)-2-(2,4-difluorophenyl)-1,1-difluoro-3-(1H-tetrazol-1-yl)-1-(5-(4-(4-(2-(trifluoromethyl)-1H-benzo [d]imidazol-5-yl)piperazin-1-yl)phenyl)pyridin-2-yl) propan-2-ol]
0.25 to 1 µg/mL (≈ 0.341 to 1.36 µM)	0.01 to 0.1 µg/mL (≈ 0.0136 to 0.136 µM)			CC[C@@H]([C@H](C)O)N(C)C(=O)c1ccc(N2CCN(c3ccc(-c4ccc(C(F)(F)[C@](O)(Cn5cnnn5)c5ccc(F)cc5F)nc4)cc3)CC2)cc1 [Example 83, 4-(4-(4-(6-((R)-2-(2,4-difluorophenyl)-1,1-difluoro-2-hydroxy-3-(1H-tetrazol-1-yl)propyl)pyridin-3-yl)phenyl)piperazin-1-yl)-N-((2S,3S)-2-hydroxypentan-3-yl)-N-methylbenzamide]
0.062 to 0.25 µg/mL (≈ 0.0832 to 0.336 µM)	0.0078 to 0.01 µg/mL (≈ 0.0105 to 0.0134 µM)			CC(O)C(C)n1ncn(-c2ccc(N3CCN(c4ccc(-c5ccc(C(F)(F)[C@](O)(Cn6cnnn6)c6ccc(F)cc6F)nc5)cc4)CC3)cc2)c1=O (stereo partly drawn) [Example 75, 4-(4-(4-(4-(6-((R)-2-(2,4-difluorophenyl)-1,1-difluoro-2-hydroxy-3-(1H-tetrazol-1-yl)propyl)pyridin-3-yl)phenyl)piperazin-1-yl)phenyl)-2-(3-hydroxybutan-2-yl)-2,4-dihydro-3H-1,2,4-triazol-3-one]
0.062 to 0.25 µg/mL (≈ 0.0867 to 0.35 µM)	0.0078 to 0.01 µg/mL (≈ 0.0109 to 0.014 µM)			CC(C)n1ncn(-c2ccc(N3CCN(c4ccc(-c5ccc(C(F)(F)[C@](O)(Cn6cnnn6)c6ccc(F)cc6F)nc5)cc4)CC3)cc2)c1=O [Example 52, (R)-4-(4-(4-(4-(6-(2-(2,4-difluorophenyl)-1,1-difluoro-2-hydroxy-3-(1H-tetrazol-1-yl)propyl)pyridin-3-yl)phenyl)piperazin-1-yl)phenyl)-2-isopropyl-2,4-dihydro-3H-1,2,4-triazol-3-one]
0.062 to 0.25 µg/mL (≈ 0.0885 to 0.357 µM)	0.01 to 0.1 µg/mL (≈ 0.0143 to 0.143 µM)			CCn1ncn(-c2ccc(N3CCN(c4ccc(-c5ccc(C(F)(F)[C@](O)(Cn6cnnn6)c6ccc(F)cc6F)nc5)cc4)CC3)cc2)c1=O [Example 54, (R)-4-(4-(4-(4-(6-(2-(2,4-difluorophenyl)-1,1-difluoro-2-hydroxy-3-(1H-tetrazol-1-yl)propyl)pyridin-3-yl)phenyl)piperazin-1-yl)phenyl)-2-ethyl-2,4-dihydro-3H-1,2,4-triazol-3-one]
0.25 to 1 µg/mL (≈ 0.36 to 1.44 µM)	0.0078 to 0.01 µg/mL (≈ 0.0112 to 0.0144 µM)			OC(c1ccc(N2CCN(c3ccc(-c4ccc(C(F)(F)[C@](O)(Cn5cnnn5)c5ccc(F)cc5F)nc4)cc3)CC2)s1)C(F)(F)F (stereo partly drawn) [Example 62, (2R)-2-(2,4-difluorophenyl)-1,1-difluoro-3-(1H-tetrazol-1-yl)-1-(5-(4-(4-(5-(2,2,2-trifluoro-1-hydroxyethyl)thiophen-2-yl)piperazin-1-yl)phenyl)pyridin-2-yl) propan-2-ol]
0.25 to 1 µg/mL (≈ 0.372 to 1.49 µM)	0.0078 to 0.01 µg/mL (≈ 0.0116 to 0.0149 µM)			O=c1[nH]ncn1-c1ccc(N2CCN(c3ccc(-c4ccc(C(F)(F)[C@](O)(Cn5cnnn5)c5ccc(F)cc5F)nc4)cc3)CC2)cc1 [Example 60, (R)-4-(4-(4-(4-(6-(2-(2,4-difluorophenyl)-1,1-difluoro-2-hydroxy-3-(1H-tetrazol-1-yl)propyl)pyridin-3-yl)phenyl)piperazin-1-yl)phenyl)-2,4-dihydro-3H-1,2,4-triazol-3-one]
		0.062 to 0.25 µg/mL	10 to 100 ng/mL	CC[C@@H]([C@H](C)O)n1ncn(-c2ccc(N3CCN(c4ccc(-c5ccc(C(F)(F)[C@](O)(Cn6cnnn6)c6ccc(F)cc6F)nc5)cc4)CC3)cn2)c1=O [Example 82, 4-(5-(4-(4-(6-((R)-2-(2,4-difluorophenyl)-1,1-difluoro-2-hydroxy-3-(1H-tetrazol-1-yl)propyl)pyridin-3-yl)phenyl)piperazin-1-yl)pyridin-2-yl)-2-((2S,3S)-2-hydroxypentan-3-yl)-2,4-dihydro-3H-1,2,4-triazol-3-one]
> 8 µg/mL	0.0078 to 0.01 µg/mL (≈ 0.012 to 0.0154 µM)			N#Cc1ccc(N2CCN(c3ccc(-c4ccc(C(F)(F)[C@](O)(Cn5cnnn5)c5ccc(F)cc5F)nc4)cc3F)CC2)c(F)c1 [Example 9, (R)-4-(4-(4-(6-(2-(2,4-difluorophenyl)-1,1-difluoro-2-hydroxy-3-(1H-tetrazol-1-yl)propyl)pyridin-3-yl)-2-fluorophenyl)piperazin-1-yl)-3-fluorobenzonitrile]
> 8 µg/mL	0.0078 to 0.01 µg/mL (≈ 0.0123 to 0.0158 µM)			N#Cc1ccc(N2CCN(c3ccc(-c4ccc(C(F)(F)[C@](O)(Cn5cnnn5)c5ccc(F)cc5F)nc4)cc3F)CC2)cc1 [Example 10, (R)-4-(4-(4-(6-(2-(2,4-difluorophenyl)-1,1-difluoro-2-hydroxy-3-(1H-tetrazol-1-yl)propyl)pyridin-3-yl)-2-fluorophenyl)piperazin-1-yl) benzonitrile]
> 8 µg/mL	0.0078 to 0.01 µg/mL (≈ 0.0119 to 0.0153 µM)			N#Cc1ccc2nc(N3CCN(c4ccc(-c5ccc(C(F)(F)[C@](O)(Cn6cnnn6)c6ccc(F)cc6F)nc5)cc4)CC3)[nH]c2c1 [Example 74, (R)-2-(4-(4-(6-(2-(2,4-difluorophenyl)-1,1-difluoro-2-hydroxy-3-(1H-tetrazol-1-yl)propyl)pyridin-3-yl)phenyl)piperazin-1-yl)-1H-benzo [d] imidazole-6-carbonitrile]
0.25 to 1 µg/mL (≈ 0.329 to 1.32 µM)	0.0078 to 0.01 µg/mL (≈ 0.0103 to 0.0132 µM)			CCC(C(C)O)n1ncn(-c2ccc(N3CCN(c4ccc(-c5ccc(C(F)(F)[C@](O)(Cn6cnnn6)c6ccc(F)cc6F)nc5)cc4)CC3)cc2)c1=O (stereo partly shown) [Example 93]
		0.062 to 0.25 µg/mL	≤7.8 to 10 ng/mL	OC(CC(F)(F)F)c1ccc(N2CCN(c3ccc(-c4ccc(C(F)(F)[C@](O)(Cn5cncn5)c5ccc(F)cc5F)nc4)cc3)CC2)cn1 (single isomer, unassigned; (+)) [120(+)]
		0.062 to 0.25 µg/mL	≤7.8 to 10 ng/mL	OC(CC(F)(F)F)c1ccc(N2CCN(c3ccc(-c4ccc(C(F)(F)[C@](O)(Cn5cnnn5)c5ccc(F)cc5F)nc4)cc3)CC2)cn1 (single isomer, unassigned) [Example 13-Fr-I]
0.25 to 1 µg/mL (≈ 0.351 to 1.41 µM)	0.01 to 0.1 µg/mL (≈ 0.0141 to 0.141 µM)			O[C@@](Cn1cnnn1)(c1ccc(F)cc1F)C(F)(F)c1ccc(-c2ccc(N3CCN(c4ccc5nc(CC(F)(F)F)[nH]c5c4)CC3)cc2)cn1 [Example 77, (R)-2-(2,4-difluorophenyl)-1,1-difluoro-3-(1H-tetrazol-1-yl)-1-(5-(4-(4-(2-(2,2,2-trifluoroethyl)-1H-benzo [d]imidazol-6-yl)piperazin-1-yl)phenyl)pyridin-2-yl) propan-2-ol]
0.25 to 1 µg/mL (≈ 0.363 to 1.45 µM)	0.0078 to 0.01 µg/mL (≈ 0.0113 to 0.0145 µM)			OC(c1cc(N2CCN(c3ccc(-c4ccc(C(F)(F)[C@](O)(Cn5cnnn5)c5ccc(F)cc5F)nc4)cc3)CC2)ccn1)C(F)(F)F (stereo partly drawn) [Example 104, (2R)-2-(2,4-difluorophenyl)-1,1-difluoro-3-(1H-tetrazol-1-yl)-1-(5-(4-(4-(2-(2,2,2-trifluoro-1-hydroxyethyl)pyridin-4-yl)piperazin-1-yl)phenyl)pyridin-2-yl)propan-2-ol]
0.062 to 0.25 µg/mL (≈ 0.0916 to 0.369 µM)	0.01 to 0.1 µg/mL (≈ 0.0148 to 0.148 µM)			CC(C)CC(O)c1ccc(N2CCN(c3ccc(-c4ccc(C(F)(F)[C@](O)(Cn5cnnn5)c5ccc(F)cc5F)nc4)cc3)CC2)cn1 (stereo partly drawn) [Example 49, 1-(5-(4-(4-(6-((R)-2-(2,4-difluorophenyl)-1,1-difluoro-2-hydroxy-3-(1H-tetrazol-1-yl)propyl)pyridin-3-yl)phenyl)piperazin-1-yl)pyridin-2-yl)-3-methylbutan-1-ol]
		>8 µg/mL	1000 to 8000 ng/mL	OC(CC(F)(F)F)c1ccc(N2CCN(c3ccc(-c4ccc(C(F)(F)[C@](O)(Cn5cnnn5)c5ccccc5F)nc4)cc3)CC2)cn1 (single isomer, unassigned; (-)) [122(−)]
